Results taken from US7459277B2, “Mammalian T1R3 sweet taste receptors” (The Regents of the University of California, priority 2003, dated 2008).
Values belong to the molecule of their own block, whether it stands above or below them. Residues, ends and D or L forms follow the SMILES beside them.

What was measured:
T1R knockout mice [1] = assay: Brief access taste test (lick rate relative to control) in wild-type and T1R knockout mice; assay type: in vivo, mouse; conditions: for behavioral responses, effect of T1R knockouts: T1R1, T1R2, T1R3 knockout versus wild-type
mouse T1R3 GPCR = molecular target: T1, mouse T1R3 GPCR (Mus musculus, UniProt Q925D8); assay: Ca-imaging of HEK-293 cells expressing T1R3 and Ggust-25; assay type: cell-based; conditions: for T1R3 and Ggust-25 dependent responses: >300 mM, three independent stable lines
T1 construct: expressed in transfected cells
T1 sequence (Q925D8 21-858): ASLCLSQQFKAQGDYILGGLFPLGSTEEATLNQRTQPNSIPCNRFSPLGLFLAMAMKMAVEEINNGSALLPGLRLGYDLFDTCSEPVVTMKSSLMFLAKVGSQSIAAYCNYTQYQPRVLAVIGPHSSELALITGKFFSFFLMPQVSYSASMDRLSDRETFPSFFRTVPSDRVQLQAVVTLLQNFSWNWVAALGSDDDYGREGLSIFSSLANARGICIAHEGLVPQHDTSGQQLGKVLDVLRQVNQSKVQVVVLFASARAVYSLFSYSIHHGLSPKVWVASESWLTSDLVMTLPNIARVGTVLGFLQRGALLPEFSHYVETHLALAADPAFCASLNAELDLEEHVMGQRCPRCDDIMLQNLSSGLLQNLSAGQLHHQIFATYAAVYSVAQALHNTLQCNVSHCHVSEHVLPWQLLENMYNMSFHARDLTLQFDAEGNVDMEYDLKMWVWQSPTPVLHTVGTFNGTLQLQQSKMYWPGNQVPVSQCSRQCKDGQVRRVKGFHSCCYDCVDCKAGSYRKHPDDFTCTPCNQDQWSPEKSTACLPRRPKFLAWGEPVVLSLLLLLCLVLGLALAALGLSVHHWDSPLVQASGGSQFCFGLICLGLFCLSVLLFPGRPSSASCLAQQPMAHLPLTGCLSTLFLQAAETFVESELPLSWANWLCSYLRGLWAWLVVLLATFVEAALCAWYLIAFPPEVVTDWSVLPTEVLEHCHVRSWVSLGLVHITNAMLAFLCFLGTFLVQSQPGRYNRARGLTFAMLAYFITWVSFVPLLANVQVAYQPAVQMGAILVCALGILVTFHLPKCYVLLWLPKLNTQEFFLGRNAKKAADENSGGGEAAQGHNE

T1R1+3 = conditions: cited from earlier work; for activation of T1R1+3: psychophysically relevant concentrations
T1R knockout mice [2] = assay: Chorda tympani nerve recordings in wild-type and T1R knockout mice; assay type: in vivo, mouse; conditions: for physiological (nerve) responses: T1R3 KO mice, salt effects minimized; for physiological responses, effect of T1R knockouts: T1R1, T1R2, T1R3 knockout versus wild-type; for neural responses (chorda tympani): wild-type, T1R1, T1R2 and T1R3 knockout mice, 100 mM citric acid, 100 mM NaCl, 10 mM PROP
rodents = conditions: 100 times higher concentrations than sweet to humans; cited from earlier work
[3] = tested on: T1R2 KO mice expressing a human T1R2 gene; assay: Behavioral taste responses of mice expressing a human T1R2 transgene; assay type: in vivo, mouse; conditions: for behavioral response to human sweet tastants: humanized T1R2 mice (T1R2 KO + hT1R2 transgene), monellin ~10 uM, thaumatin ~5 uM, aspartame 10 mM, glycyrrhizic acid 500 uM, neohesperidin dihydrochalcone 400 uM
humans = conditions: sub-millimolar concentrations; cited from earlier work
HEK-293 cells = assay: Ca-imaging, receptor independent rises in [Ca2+]i; assay type: cell-based, human; conditions: high concentrations of sugar
Procedure: Modified HEK-293 cells (PEAK^rapid cells; Edge BioSystems, Md.) were grown, transfected with […] and promiscuous G-proteins and assayed for functional responses to tastants by Ca-imaging essentially as described previously (Nelson, G. et al., Cell, 106, 381-390 (2001)). Minor differences in FURA-2 loading and Ca-imaging included using 199(H) Medium (Biosource) containing 0.1% BSA, 100 μM EGTA and 200 μM CaCl2 as assay buffer as well as reducing the time allowed for FURA-AM ester cleavage to 10 minutes. The imaging system was an Olympus IX50 microscope equipped with a 10×/0.5 N.A. fluor objective (Zeiss), the TILL imaging system (TILL Photonics GmbH), and a cooled CCD camera. Acquisition and analysis of fluorescence images used TILL-Vision software. To optimize coupling of […]-responses to changes in [Ca^2+]i, C-terminal residues of human Gα16 (Offermanns, S., and Simon, M. I., J Biol Chem, 270, 15175-15180 (1995)) were replaced with the corresponding residues from Gz (Mody, S. M. et al., Mol Pharmacol, 57, 13-23 (2000)), gustducin (McLaughlin, S. K. et al., Nature, 357, 563-569 (1992)) or Gαi2. […] Cell lines stably expressing T1R3 and Ggust-25 were established using puromycin and Zeocin (Invitrogen) selection. Three independent lines expressing T1R3 and Ggust-25 were used to examine the specificity and dose response of the T1R3 receptor.

T1R2+3 = molecular target: T2, T1R2+3 (Mus musculus, UniProt Q925D8+Q925I4); assay: Ca-imaging of HEK-293 cells co-transfected with T1R2 plus T1R3 and Ggust-25; assay type: cell-based; conditions: control cells expressing T1R2+3
T2 construct: expressed in transfected cells; host or cells: modified HEK-293 cells (PEAKrapid)
T2 sequence (Q925I4 20-843): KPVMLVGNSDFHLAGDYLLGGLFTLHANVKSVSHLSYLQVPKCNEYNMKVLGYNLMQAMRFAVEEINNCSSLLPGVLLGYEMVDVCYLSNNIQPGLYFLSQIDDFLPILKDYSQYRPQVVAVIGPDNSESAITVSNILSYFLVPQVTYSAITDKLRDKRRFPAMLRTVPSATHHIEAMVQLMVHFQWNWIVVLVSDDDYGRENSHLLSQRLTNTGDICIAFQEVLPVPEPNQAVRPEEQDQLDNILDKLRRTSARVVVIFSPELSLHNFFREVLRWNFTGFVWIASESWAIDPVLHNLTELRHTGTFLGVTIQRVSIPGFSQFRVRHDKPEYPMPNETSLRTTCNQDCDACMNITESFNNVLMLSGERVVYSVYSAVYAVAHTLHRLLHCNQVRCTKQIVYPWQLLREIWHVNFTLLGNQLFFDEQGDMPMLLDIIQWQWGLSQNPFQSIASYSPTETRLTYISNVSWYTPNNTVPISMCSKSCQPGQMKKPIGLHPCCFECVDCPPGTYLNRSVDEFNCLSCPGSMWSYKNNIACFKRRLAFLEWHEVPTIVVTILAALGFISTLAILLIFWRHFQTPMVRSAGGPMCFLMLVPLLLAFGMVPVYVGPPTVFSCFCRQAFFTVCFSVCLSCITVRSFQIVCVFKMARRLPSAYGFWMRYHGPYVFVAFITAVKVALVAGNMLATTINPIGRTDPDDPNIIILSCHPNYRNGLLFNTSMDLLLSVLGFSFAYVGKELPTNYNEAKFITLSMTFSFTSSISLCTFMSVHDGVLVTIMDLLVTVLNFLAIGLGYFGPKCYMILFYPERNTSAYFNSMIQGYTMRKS
T2 sequence (Q925D8 21-858): T1 sequence (Q925D8 21-858)

[4] = T1R1 and T1R3 knockout animals, L-Asp 100 mM, AP4 30 mM
[5] = T1R3 KO mice, salt effects minimized

- T1R3 and Ggust-25 dependent responses (mouse T1R3 GPCR): dose dependent responses
Molecule: OC[C@H]1O[C@H](O[C@H]2[C@H](O)[C@@H](O)C(O)O[C@@H]2CO)[C@H](O)[C@@H](O)[C@@H]1O (mixture of isomers) [maltose]
- taste preference relative to water (T1R knockout mice [1]; T1R2 and T1R3 knockout animals): residual responses

Molecule: NC(CCP(=O)(O)O)C(=O)O (stereo not shown) [AP4]
- taste preference relative to water (T1R knockout mice [1]; [4]): complete loss in preference
- activation of T1R1+3 (T1R1+3): activated

Molecule: C[C@H](N)C(=O)O [Ala]
- behavioral attraction (T1R knockout mice [1]; T1R1 KO animals, >300 mM): small residual attraction

Molecule: Nc1nc2c(ncn2[C@@H]2O[C@H](COP(=O)(O)O)[C@@H](O)[C@H]2O)c(=O)[nH]1 [GMP]
- enhancement of T1R1+3 activity (T1R1+3): reliably enhanced

Molecule: N[C@@H](CC(=O)O)C(=O)O [L-Asp, aspartic acid]
- taste preference relative to water (T1R knockout mice [1]; [4]): complete loss in preference
- behavioral attraction (T1R knockout mice [1]; [5]): dramatic loss of behavioral attraction
- physiological (nerve) responses (T1R knockout mice [2]): profound corresponding deficit in physiological responses
- activation of T1R1+3 (T1R1+3): activated

Molecule: N[C@@H](CCC(=O)O)C(=O)[O-].[Na+] [MSG, monosodium glutamate]
- taste preference relative to water (T1R knockout mice [1]; [4]): complete loss in preference
- integrated chorda tympani response (T1R knockout mice [2]; T1R1 and T1R3 knockouts, high concentration of salt (100 mM MSG)): residual responses are detected

Molecule: [Cl-].[Na+] [NaCl, sodium chloride]
- behavioral responses, effect of T1R knockouts (T1R knockout mice [1]): no significant effect
- physiological responses, effect of T1R knockouts (T1R knockout mice [2]): no significant effect
- neural responses (chorda tympani) (T1R knockout mice [2]): robust neural responses

Molecule: CCCc1cc(=O)[nH]c(=S)[nH]1 [PROP, 6-n-propyl-thiouracil]
- neural responses (chorda tympani) (T1R knockout mice [2]): robust neural responses

Molecule: N[C@@H](CO)C(=O)O [Ser]
- behavioral attraction (T1R knockout mice [1]; T1R1 KO animals, >300 mM): small residual attraction

Molecule: C[C@@H](O)[C@H](N)C(=O)O [Thr]
- behavioral attraction (T1R knockout mice [1]; T1R1 KO animals, >300 mM): small residual attraction

Molecule: COC(=O)[C@H](Cc1ccccc1)NC(=O)[C@@H](N)CC(=O)O [aspartame] (H-Asp-Phe-OMe)
- preference in rodents (rodents): no preference
- behavioral attraction ([3]; 10 mM, three independent human T1R2 transgenic lines): displayed behavioral attraction
- behavioral response to human sweet tastants [3]: ability to detect and respond
- sweet taste to humans (humans): taste sweet

Molecule: O=C(O)CC(O)(CC(=O)O)C(=O)O [citric acid]
- behavioral responses, effect of T1R knockouts (T1R knockout mice [1]): no significant effect
- physiological responses, effect of T1R knockouts (T1R knockout mice [2]): no significant effect
- neural responses (chorda tympani) (T1R knockout mice [2]): robust neural responses

Molecule: O=C(CO)[C@@H](O)[C@H](O)[C@H](O)CO [fructose]
- receptor independent rises in [Ca2+]i (HEK-293 cells): significant receptor independent rises in [Ca^2+]i

Molecule: O=C[C@H](O)[C@@H](O)[C@@H](O)[C@H](O)CO [galactose]
- receptor independent rises in [Ca2+]i (HEK-293 cells): significant receptor independent rises in [Ca^2+]i

Molecule: N[C@@H](CCC(=O)O)C(=O)O [glutamate]
- behavioral attraction (T1R knockout mice [1]; [5]): dramatic loss of behavioral attraction
- physiological (nerve) responses (T1R knockout mice [2]): profound corresponding deficit in physiological responses

Molecule: CC1(C)[C@@H](O[C@H]2O[C@H](C(=O)O)[C@@H](O)[C@H](O)[C@H]2O[C@@H]2O[C@H](C(=O)O)[C@@H](O)[C@H](O)[C@H]2O)CC[C@]2(C)[C@H]3C(=O)C=C4[C@@H]5C[C@@](C)(C(=O)O)CC[C@]5(C)CC[C@@]4(C)[C@]3(C)CC[C@@H]12 [glycyrrhizic acid]
- behavioral response to human sweet tastants [3]: ability to detect and respond

- [Ca2+]i response (T1R2+3; 30 mM saccharin): respond robustly
- [Ca2+]i response (mouse T1R3 GPCR; 300 mM saccharin): No responses were detected
Molecule: O=C1NS(=O)(=O)c2ccccc21 [saccharin]

- [Ca2+]i response (T1R2+3; 300 mM sucrose): respond robustly
- increases in [Ca2+]i (FURA-2) (mouse T1R3 GPCR; 500 mM sucrose): increases in [Ca^2+]i
- T1R3 and Ggust-25 dependent responses (mouse T1R3 GPCR): dose dependent responses
Molecule: OC[C@H]1O[C@@](CO)(O[C@H]2O[C@H](CO)[C@@H](O)[C@H](O)[C@H]2O)[C@@H](O)[C@@H]1O [sucrose]
- taste preference relative to water (T1R knockout mice [1]; T1R2 and T1R3 knockout animals): residual responses

Molecule: OC[C@H]1O[C@H](O[C@H]2O[C@H](CO)[C@@H](O)[C@H](O)[C@H]2O)[C@H](O)[C@@H](O)[C@@H]1O [trehalose]
- receptor independent rises in [Ca2+]i (HEK-293 cells): significant receptor independent rises in [Ca^2+]i

B1: thaumatin (protein)
chain: ATFEIVNRCSYTVWAAASKGDAALDAGGRQLNSGESWTINVEPGTNGGKIWARTDCYFDDSGSGICKTGDCGGLLRCKRFGRPPTTLAEFSLNQYGKDYIDISNIKGFNVPMDFSPTTRGCRGVRCAADIVGQCPAKLKAPGGGCNDACTVFQTSEYCCTTGKCGPTEYSRFFKRLCPDAFSYVLDKPTTVTCPGSSNYRVTFCPTA
notes: sweet protein
- preference in rodents (rodents): no preference
- behavioral response to human sweet tastants [3]: ability to detect and respond
- sweet taste to humans (humans): taste sweet

B2: monellin (protein)
chain 1: FREIKGYEYQLYVYASDKLFRADISEDYKTRGRKLLRFNGPVPPP
chain 2: GEWEIIDIGPFTQNLGKFAVDEENKIGQYGRLTFNKVIRPCMKKTIYEEN
notes: sweet protein
- preference in rodents (rodents): no preference
- behavioral response to human sweet tastants [3]: ability to detect and respond
- sweet taste to humans (humans): taste sweet
